Assay results as given in EP2441755A1 (Almirall, S.A., priority 2010, dated 2012).
Where two headings read alike, the source gives them in different places.

Experiments:
[1] = target: T1, Recombinant human full-length Syk (Homo sapiens, UniProt P43405); assay: Syk enzyme assay - radioactive filtration kinase assay; type: biochemical
T1 construct: Recombinant human full-length Syk was supplied by Millipore; purchased Millipore
Method: Syk Enzyme assay- Radioactive filtration kinase assay
Recombinant human full-length Syk was supplied by Millipore. The activity of Syk kinase was assessed using a radioactive filtration kinase assay. […] The reaction was initiated by the addition of 14.5 µl of 0.36 µCi [γ-^33P] ATP (10 mCi/ml, PerkinElmer). This was prepared in a half-area NBS plate (Corning) and allowed to stand at room temperature for 40 min. 15 µl of reaction mixture was transferred to a filter plate (Millipore) previously pre-wetted with a solution of 75 mM phosphoric acid. The reaction was terminated with the addition of 200 µl phosphoric acid. The filter plate was washed three times under vacuum on a vacuum manifold (Millipore cat# MSVMHTS00) at 8" Hg vacuum level with 200 µl phosphoric acid per wash. 30 µl Optiphase™ Supermix (PerkinElmer) was added to each test well and allowed to incubate for at least 1 h before counting. Radioactivity counting was performed in a Wallac MicroBeta®, and the tyrosine phosphorylation activity by Syk was calculated.

LAD2 cells = LAD2 cells assay (degranulation, β-hexosaminidase release); type: cell-based; conditions: Homo sapiens
Excerpt: LAD2 is a human mast cell line depending on stem cell factor for its survival, maturation and differentiation. This mast cell line was established by the NIH from bone marrow aspirates from a patient with mast cell sarcoma. LAD2 cells resemble CD34+ - derived human mast cells as they have granules containing tryptase, histamine and β-hexosaminidase. They also express c-kit and FcεRI (Kirshenbaum, et al., Leukemia Research 27: 677-682, 2003).
Sensitization of LAD2 cells
Cells were sensitized (0.2x10^6 cells/ml) in its normal growth factor (Complete StemPro-34 SFM, Gibco 10639-011 containing StemPro-34 nutrient supplement (1/40); glutamine (2 mM) and supplemented with 100 ng/ml SCF) by adding 100 ng/ml of biotin-labeled IgE (USBiological) overnight (16-18 h, 37º, 5% CO2) in a humidified atmosphere (90%).
Compounds were prepared from a 10^-2M stock in 100% DMSO to give seven successive 1/3 dilutions in DMSO. From each concentration, 2 further 1/10 dilutions were prepared in release buffer (137 mM NaCl, 2.70 mM KCI, 0.4 mM NaH2PO4, 5.6 mM (D)-glucose, 1.8 mM CaCl2, 1.3 mM MgSO4, 0.025% BSA). Finally, 5 µl from each diluted concentration were transferred into the assay plate (flat 96-well Nunc). The final compound concentrations tested ranged from 1x10^-5M to […] with a final proportion of DMSO in the assay of 0.1 %. Control wells were treated with 0.1 % DMSO.
Sensitized LAD2 cells were centrifuged (300 g, 3 min, R.T.) and washed 2 times with release buffer. Cells were resuspended in release buffer and adjusted to a density of 0.2x10^6/ml. 45 µl of the adjusted cells were transfered to the assay plate (∼10,000cells/well) containg 5 µl of the final compound concentrations. LAD2 cells were incubated with the compound for 30 min (37 °C, 5% CO2 90% of humidity) and then activated with 125 ng/ml of streptavidin (Pierce 21125) for 30 min (37 °C, 5% CO2, 90% of humidity). After the activation, cells were centrifuged at 1200 g, 10 min, 12 °C and supernatats were removed and transfered to another well for determination of released β-hexosaminidase. Empty wells were filled with 50 µl of release buffer for determination of intracellular β-hexosaminidase. Cells were lysed with 2 cycles of freeze-thaw.
Cells were incubated for 90 minutes, 37 °C with 1 mM β-hexosaminidase substrate (p-nitrophenyl N-acetyl-D-glucosamide, in citric buffer, pH 4.5). Reaction was stopped with 0.4 M glycine solution (pH 10.0) and the plate is read immediately at 405 nm.

[2] = 0.5 h, IgE-sensitized LAD2 cells, 30 min with compound, activated with 125 ng/ml streptavidin, released β-hexosaminidase, read-out: LAD2IC50
[3] = Syk 1nM final, poly-GT 100 µg/ml, [γ-33P] ATP, 40 min at room temperature, read-out: Syk IC50

IC50 [1, 3]	SMILES	IC50 [1]	IC50 (LAD2 cells; [2])	IC50 ([1]; read-out: Syk IC50, Syk 1nM final, poly-GT 100 µg/ml, [γ-33P] ATP, 40 min at room temperature)	IC50 (LAD2 cells; LAD2, 0.5 h, read-out: LAD2IC50(nM))
1.18 nM	FC(F)(F)c1ccnc(Nc2cccc(-c3cccc(C4CCNCC4)c3)n2)c1 [Example 22, N-[6-(3-Piperidin-4-ylphenyl)pyridin-2-yl]-4-(trifluoromethyl)pyridin-2-amine]		368 nM		
18 nM	Cc1ccnc(Nc2cc3ccccc3c(-c3ccnc(N4CCNCC4)c3)n2)c1 [Example 52, N-(4-Methylpyridin-2-yl)-1-(2-piperazin-1-ylpyridin-4-yl)isoquinolin-3-amine]		434 nM		
7 nM	O=C(Nc1cc(Nc2cnccn2)nc(-c2ccnc(N3CCNCC3)c2)c1)c1cccc(C(F)(F)F)c1 [Example 76, N-[2'-Piperazin-1-yl-6-(pyrazin-2-ylamino)-2,4'-bipyridin-4-yl]-3-(trifluoromethyl) benzamide]		310 nM		
9 nM	O=C(Nc1cc(Nc2cnccn2)nc(-c2ccnc(N3CCNCC3)c2)c1)c1ccc2c(c1)OCO2 [Example 77, N-[2'-Piperazin-1-yl-6-(pyrazin-2-ylamino)-2,4' -bipyridin-4-yl]-1,3-benzodioxole-5-Carboxamide]		230 nM		
12 nM	COc1ccc(C(=O)Nc2cc(Nc3cnccn3)nc(-c3ccnc(N4CCNCC4)c3)c2)cc1 [Example 81, 4-Methoxy-N-[2'-piperazin-1-yl-6-(pyrazin-2-ylamino)-2,4'-bipyridin-4-yl]benzamide]		430 nM		
8 nM	O=C(CCc1ccccc1)Nc1cc(Nc2cnccn2)nc(-c2ccnc(N3CCNCC3)c2)c1 [Example 82, 3-Phenyl-N-[2'-piperazin-1-yl-6-(pyrazin-2-ylamino)-2,4'-bipyridin-4-yl]propanamide]		280 nM		
6 nM	COC(=O)c1cccc(C(=O)Nc2cc(Nc3cnccn3)nc(-c3ccnc(N4CCNCC4)c3)c2)c1 [Example 87, Methyl 3-({[2'-piperazin-1-yl-6-(pyrazin-2-ylamino)-2,4'-bipyridin-4-yl]amino}carbonyl)benzoate]		330 nM		
16 nM	O=C(C[C@H](Cc1ccccc1)C(=O)O)Nc1cc(Nc2cnccn2)nc(-c2ccnc(N3CCNCC3)c2)c1 [Example 98, (2S)-2-Benzyl-4-oxo-4-{[2'-piperazin-1-yl-6-(pyrazin-2-ylamino)-2,4'-bipyridin-4-yl]amino}butanoic acid]		82 nM		
8 nM	CC(=O)Nc1cc(Nc2cnccn2)nc(-c2ccnc(N3CCNCC3)c2)c1 [Example 101, N-[2'-Piperazin-1-yl-6-(pyrazin-2-ylamino)-2,4'-bipyridin-4-yl]acetamide]		117 nM		
13 nM	O=C(O)C[C@H](Cc1ccccc1)NC(=O)c1cccc(C(=O)Nc2cc(Nc3cnccn3)nc(-c3ccnc(N4CCNCC4)c3)c2)c1 [Example 109, (3S)-4-Phenyl-3-{[3-({[2'-piperazin-1-yl-6-(pyrazin-2-ylamino)-2,4'-bipyridin-4-yl]amino}carbonyl)benzoyl]amino}butanoic acid]		100 nM		
8.2 nM	OC1CCN(c2cc(Nc3cnccn3)nc(-c3ccnc(N4CCNCC4)c3)c2)CC1 [Example 130, 1-(2'-(Piperazin-1-yl)-6-(pyrazin-2-ylamino)-2,4'-bipyridin-4-yl)piperidin-4-ol]		400 nM		

Continued, compound first:

SMILES	IC50 [1, 3]	IC50 [1]	IC50 (LAD2 cells; [2])	IC50 ([1]; read-out: Syk IC50, Syk 1nM final, poly-GT 100 µg/ml, [γ-33P] ATP, 40 min at room temperature)	IC50 (LAD2 cells; LAD2, 0.5 h, read-out: LAD2IC50(nM))
Cc1ccnc(Nc2cccc(-c3ccnc(N4CCNCC4)c3)n2)c1 [Example 14, N-(4-Methylpyridin-2-yl)-2'-piperazin-1-yl-2,4'-bipyridin-6-amine]		14 nM	70 nM		
NCCc1cccc(-c2cccc(Nc3cc(C(F)(F)F)ccn3)n2)c1 [Example 20, N-{6-[3-(2-Aminoethyl)phenyl]pyridin-2-yl}-4-(trifluoromethyl)pyridin-2-amine]	8 nM		186 nM		
FC(F)(F)c1ccnc(Nc2cccc(-c3cccc(N4CCNCC4)c3)n2)c1 [Example 23, N-[6-(3-Piperazin-1-ylphenyl)pyridin-2-yl]-4-(trifluoromethyl)pyridin-2-amine]		0.56 nM	331 nM		
FC(F)(F)c1ccnc(Nc2cccc(-c3ccnc(N4CCNCC4)c3)n2)c1 [Example 26, 2'-Piperazin-1-y)-N-[4-(trifluoromethy))pyridin-2-y)]-2,4'-bipyridin-6-amine]		1.8 nM	206 nM		
C1=C(c2cccc(-c3cccc(Nc4cnccn4)n3)c2)CCNC1 [Example 29, N-{6-[3-(1,2,3,6-Tetrahydropyridin-4-y))pheny)]pyridin-2-y)}pyrazin-2-amine]	20 nM		183 nM		
Cc1cc(C(=O)Nc2cc(Nc3cnccn3)nc(-c3ccnc(N4CCNCC4)c3)c2)n(C)n1 [Example 83, 1,3-Dimethyl-N-[2'-piperazin-1-yl-6-(pyrazin-2-ylamino)-2,4'-bipyridin-4-yl]-1H-pyrazole-5-Carboxamide]		7 nM	170 nM		
O=C(Cc1cccnc1)Nc1cc(Nc2cnccn2)nc(-c2ccnc(N3CCNCC3)c2)c1 [Example 89, N-[2'-Piperazin-1-yl-6-(pyrazin-2-ylamino)-2,4'-bipyridin-4-yl]-2-pyridin-3-ylacetamide]		4 nM	350 nM		
O=C(Nc1cc(Nc2cnccn2)nc(-c2ccnc(N3CCNCC3)c2)c1)c1cncnc1 [Example 95, N-[2'-Piperazin-1-yl-6-(pyrazin-2-ylamino)-2,4'-bipyridin-4-yl]pyrimidine-5-Carboxamide]		9 nM	320 nM		
O=C(Nc1cc(Nc2cnccn2)nc(-c2ccnc(N3CCNCC3)c2)c1)c1ccc(C(=O)O)nc1 [Example 96, 5-({[2'-Piperazin-1-yl-6-(pyrazin-2-ylamino)-2,4'-bipyridin-4-yl]amino}carbonyl) pyridine-2-Carboxylic acid]		10 nM	200 nM		
Nc1cc(Nc2cnccn2)nc(-c2ccnc(N3CCNCC3)c2)c1 [Example 127, 2'-Piperazin-1-yl-N^6-pyrazin-2-yl-2,4'-bipyridine-4,6-diamine]		4 nM	118 nM		
CNc1cc(Nc2cnccn2)nc(-c2ccnc(N3CCNCC3)c2)c1 [Example 128, N^4-Methyl-2'-(piperazin-1-yl)-N^6-(pyrazin-2-yl)-2,4'-bipyridine-4,6-diamine]		4.1 nM	190 nM		
Nc1cc(Nc2cnccn2)nc(-c2cncc(N3CCNCC3)c2)c1 [Example 138]				2.5 nM	150 nM
